Measurements: patent US4540517A, “Antibiotic TAN-420” (Takeda Chemical Industries, Ltd., priority 1982, dated 1985)
In brackets after ≈: the same amount, converted by molar mass. Read-outs that look alike come from different tables or passages of the source.

Experiments:
[1] = known from Journal of Antibiotics 32, 255-261 (1979), Tetrahedron Letters No. 44, 4323-4326 (1979); cited from earlier work
Tetrahymena pyriformis W = assay: Liquid dilution assay of antiprotozoal activity; type: cell-based; conditions: read-out: minimal inhibitory concentration
[2] = system: Pseudomonas aeruginosa IFO 3080; assay: Agar dilution assay, antimicrobial activity; type: cell-based
Experimental: (§1) The antimicrobial activity of Antibiotic TAN-420B, C, D and E was assayed by the agar dilution method using Typticase soy agar (Baltimore Biological Laboratories, U.S.A.) as the test medium.

[3] = system: Staphylococcus aureus FDA 209P; assay: Agar dilution assay, antimicrobial activity; type: cell-based; conditions: FDA209P, read-out: Minimal inhibitory concentration
Experimental: as §1

B. brevis IFO 3331 = assay: Agar dilution assay, antimicrobial activity; type: cell-based; conditions: Brevibacillus brevis
Experimental: as §1

[4] = system: Bacillus subtilis PCI 219; assay: Agar dilution assay, antimicrobial activity; type: cell-based
Experimental: as §1

B. megaterium IFO 12108 = assay: Agar dilution assay, antimicrobial activity; type: cell-based; conditions: Priestia megaterium
Experimental: as §1

[5] = system: Micrococcus flavus IFO 3242; assay: Agar dilution assay, antimicrobial activity; type: cell-based
Experimental: as §1

B. cereus IFO 3514 = assay: Agar dilution assay, antimicrobial activity; type: cell-based; conditions: Bacillus cereus
Experimental: as §1

B. pumilus IFO 3813 = assay: Agar dilution assay, antimicrobial activity; type: cell-based; conditions: Bacillus pumilus
Experimental: as §1

Escherichia coli K12 = assay: Agar dilution assay, antimicrobial activity; type: cell-based
Experimental: as §1

[6] = system: gram-positive bacteria, fungi and protozoae; assay: Antimicrobial activity (general statement); conditions: considered, relative to TAN-420B
[7] = Acute toxicity (mouse, intraperitoneal); conditions: in vivo, ip
Experimental: As regards the acute toxocity of Antibiotic TAN-420 (mouse, intraperitoneal), the LD50 value of TAN-420C was 200 to 400 mg/kg, that of TAN-420D was 100 mg/kg, and that of TAN-420E was 50 mg/kg. It is therefore, considered that the toxicity of Antibiotic TAN-420 is low.

[8] = Toxicity compared with herbimycin A; conditions: comparison in words
[9] = liquid dilution assay, Tetrahymena pyriformis W
[10] = IFO3080, agar dilution, Pseudomonas aeruginosa IFO 3080, read-out: Minimal inhibitory concentration
[11] = agar dilution, Staphylococcus aureus FDA 209P
[12] = IFO3331, agar dilution, B. brevis IFO 3331, read-out: Minimal inhibitory concentration
[13] = PCI219, agar dilution, Bacillus subtilis PCI 219, read-out: Minimal inhibitory concentration
[14] = IFO12108, agar dilution, B. megaterium IFO 12108, read-out: Minimal inhibitory concentration
[15] = IFO3242, agar dilution, Micrococcus flavus IFO 3242, read-out: Minimal inhibitory concentration
[16] = IFO3514, agar dilution, B. cereus IFO 3514, read-out: Minimal inhibitory concentration
[17] = IFO3813, agar dilution, B. pumilus IFO 3813, read-out: Minimal inhibitory concentration
[18] = agar dilution, Escherichia coli K12, read-out: Minimal inhibitory concentration

Row | Structure (SMILES) | LD50 [7] [mg/kg] | MIC (Tetrahymena pyriformis W; [9]) [µg/mL] | MIC [2, 10] [µg/mL] | MIC [3, 11] [µg/mL] | MIC (B. brevis IFO 3331; [12]) [µg/mL] | MIC [4, 13] [µg/mL] | MIC (B. megaterium IFO 12108; [14]) [µg/mL] | MIC [5, 15] [µg/mL] | MIC (B. cereus IFO 3514; [16]) [µg/mL] | MIC (B. pumilus IFO 3813; [17]) [µg/mL] | MIC (Escherichia coli K12; [18]) [µg/mL] | toxicity relative to herbimycin A [8] | further results
1 | COC1C=CC=C(C)C(=O)NC2=CC(=O)C=C(C2=O)C(OC)C(C)CC(OC)C(OC)C(C)C=C(C)C1OC(N)=O (stereo not drawn) [herbimycin A] |  |  |  |  |  |  |  |  |  |  |  |  | herbicidal activity [1]: has herbicidal activity
2 | COC1C=CC=C(C)C(=O)NC2=CC(=O)C=C(C2=O)C(OC)C(C)CC(O)C(O)C(C)C=C(C)C1OC(N)=O (stereo not drawn) [TAN-420B] |  |  |  |  |  |  |  |  |  |  |  |  | MIC (Tetrahymena pyriformis W; Tetrahymena pyriformis): 40 µg/mL (≈ 73.2 µM); MIC ([2]; Pseudomonas aeruginosa, IFO3080, read-out: Minimal inhibitory concentration): > 100 µg/mL; MIC ([3]; Staphylococcus aureus): 100 µg/mL (≈ 183 µM); MIC (B. brevis IFO 3331; IFO3331, read-out: Minimal inhibitory concentration): 50 µg/mL (≈ 91.5 µM); MIC ([4]; Bacillus subtilis, PCI219, read-out: Minimal inhibitory concentration): > 100 µg/mL; MIC (B. megaterium IFO 12108; IFO12108, read-out: Minimal inhibitory concentration): 100 µg/mL (≈ 183 µM); MIC ([5]; Micrococcus flavus, IFO3242, read-out: Minimal inhibitory concentration): 25 µg/mL (≈ 45.7 µM); MIC (B. cereus IFO 3514; IFO3514, read-out: Minimal inhibitory concentration): 100 µg/mL (≈ 183 µM); MIC (B. pumilus IFO 3813; IFO3813, read-out: Minimal inhibitory concentration): 100 µg/mL (≈ 183 µM); MIC (Escherichia coli K12; Escherichia coli, K12, read-out: Minimal inhibitory concentration): > 100 µg/mL
3 | COC1C=CC=C(C)C(=O)Nc2cc(O)cc(c2O)C(OC)C(C)CC(O)C(O)C(C)C=C(C)C1OC(N)=O (stereo not drawn) [TAN-420A] |  |  |  |  |  |  |  |  |  |  |  |  | antimicrobial activity [6]: of the same order as that of TAN-420B
4 | COC1C=CC=C(C)C(=O)Nc2cc(O)cc(c2O)C(OC)C(C)CC(OC)C(O)C(C)C=C(C)C1OC(N)=O (stereo not drawn) [TAN-420C] | 200 to 400 | 10 (≈ 17.8 µM) | > 100 | 100 (≈ 178 µM) | 50 (≈ 88.9 µM) | > 100 | 100 (≈ 178 µM) | 25 (≈ 44.4 µM) | 100 (≈ 178 µM) | 100 (≈ 178 µM) | > 100 | lower than that of herbimycin A | 
5 | COC1C=CC=C(C)C(=O)NC2=CC(=O)C=C(C2=O)C(OC)C(C)CC(OC)C(O)C(C)C=C(C)C1OC(N)=O (stereo not drawn) [TAN-420D] | 100 | 4 (≈ 7.13 µM) | > 100 | 100 (≈ 178 µM) | 50 (≈ 89.2 µM) | > 100 | 100 (≈ 178 µM) | 25 (≈ 44.6 µM) | 100 (≈ 178 µM) | 100 (≈ 178 µM) | > 100 | lower than that of herbimycin A | 
6 | COC1C=CC=C(C)C(=O)Nc2cc(O)cc(c2O)C(OC)C(C)CC(OC)C(OC)C(C)C=C(C)C1OC(N)=O (stereo not drawn) [TAN-420E] | 50 | 2 (≈ 3.47 µM) | > 100 | 100 (≈ 173 µM) | 50 (≈ 86.7 µM) | 100 (≈ 173 µM) | 50 (≈ 86.7 µM) | 50 (≈ 86.7 µM) | 100 (≈ 173 µM) | 100 (≈ 173 µM) | > 100 | lower than that of herbimycin A | 
